# Results published in article PMC6367362, “MD001, a Novel Peroxisome Proliferator-activated Receptor α/γ Agonist, Improves Glucose and Lipid Metabolism” (Scientific Reports, 2019).
# Columns and labels:
# PPARβ/δ = molecular target: T1, PPARβ/δ (Homo sapiens, UniProt Q03181); assay: SPR analysis of binding to immobilised HA-PPARβ/δ; settings: N.B = No binding up to 500 μM
# T1 construct: HA; made in house
# T1 sequence (Q03181 1-441): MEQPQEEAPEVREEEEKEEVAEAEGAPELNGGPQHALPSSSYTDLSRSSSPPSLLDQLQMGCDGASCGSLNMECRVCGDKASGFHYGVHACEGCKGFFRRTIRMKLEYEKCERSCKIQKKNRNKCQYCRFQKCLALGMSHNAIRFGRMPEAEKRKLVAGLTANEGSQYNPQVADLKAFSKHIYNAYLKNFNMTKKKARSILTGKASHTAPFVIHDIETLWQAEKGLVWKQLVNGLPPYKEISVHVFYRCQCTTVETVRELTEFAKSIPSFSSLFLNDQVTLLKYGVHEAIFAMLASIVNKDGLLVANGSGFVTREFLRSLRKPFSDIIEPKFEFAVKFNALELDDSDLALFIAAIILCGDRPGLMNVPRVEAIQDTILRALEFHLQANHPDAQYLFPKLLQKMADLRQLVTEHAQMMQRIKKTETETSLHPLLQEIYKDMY
# Experimental: (§1) SPR analysis was performed using a Reichert SR7500DC (Reichert Technologies, Depew, NY, USA). HA-PPARα, HA-PPARβ/δ, and HA-PPARγ were purified as previously described[23] and was immobilised on CMDH chips (Reichert Technologies) according to the manufacturer’s instructions. MD001 was loaded in a dose-dependent manner (31.25, 62.5, 125, 250, and 500 μM) for the SPR assay. The dissociation constant (KD) value was determined using the Scrubber2 program (Informer Technologies, Inc., Los Angeles, CA, USA).
# PPARγ = molecular target: T2, PPARγ (Homo sapiens, UniProt P37231); assay: SPR analysis of binding to immobilised HA-PPARγ; settings: MD001 31.25-500 μM
# T2 construct: HA; made in house
# T2 sequence (P37231 1-505): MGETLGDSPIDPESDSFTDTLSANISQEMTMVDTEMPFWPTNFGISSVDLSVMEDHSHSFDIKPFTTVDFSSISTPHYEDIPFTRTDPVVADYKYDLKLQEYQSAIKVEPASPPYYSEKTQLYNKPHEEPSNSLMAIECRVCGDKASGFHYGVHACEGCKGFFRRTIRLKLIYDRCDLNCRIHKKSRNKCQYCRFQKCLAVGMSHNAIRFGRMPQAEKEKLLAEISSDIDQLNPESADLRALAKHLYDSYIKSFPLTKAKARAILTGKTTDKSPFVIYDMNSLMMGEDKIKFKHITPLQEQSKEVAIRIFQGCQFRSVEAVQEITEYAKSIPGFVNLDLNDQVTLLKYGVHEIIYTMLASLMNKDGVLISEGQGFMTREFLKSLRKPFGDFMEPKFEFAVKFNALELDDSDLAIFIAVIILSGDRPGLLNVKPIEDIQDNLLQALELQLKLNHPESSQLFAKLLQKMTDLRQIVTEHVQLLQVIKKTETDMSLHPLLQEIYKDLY
# Experimental: as §1
# [1] = tested on: differentiated C2C12 myotubes; assay: In vitro glucose consumption assay, C2C12 myotubes; assay type: cell-based, mouse; settings: 10, 50 μM, 24 h
# Experimental: (§2) Figure 3 MD001 promotes glucose consumption by induction of GLUT expression. HepG2 (A), differentiated 3T3-L1 adipocytes (B), and differentiated C2C12 myotubes (C) were treated with vehicle, MD001 (10, 50 μM), or rosiglitazone (rosi, 10 μM) for 24 h; glucose consumption was examined as described in the Methods section. Cells were harvested for total RNA isolation. Relative expression levels of GLUT2 (D) and GLUT4 (E,F) were quantitated using qRT-PCR. *, **, and ^† vs. vehicle. Data represent the mean ± SD of three independent experiments. *P < 0.05, **P < 0.01, and ^†P < 0.01.
# The glucose consumption assay was performed as previously described. Briefly, cells were treated with MD001 or rosiglitazone […]. The conditioned medium from cultured cells was harvested and assayed for glucose content using a Glucose Colorimetric Assay Kit II (BioVision Inc., Milpitas, CA, USA).
# [2] = tested on: differentiated C2C12 myotubes; assay: qRT-PCR gene expression in differentiated C2C12 myotubes; assay type: cell-based, mouse; settings: 24 h
# Experimental: as §2
# Figure 4 MD001 stimulates fatty acid oxidation in vitro. […] Relative gene expressions were analysed by qRT-PCR. HepG2 (D), differentiated 3T3-L1 adipocytes (E), and differentiated C2C12 myotubes (F) were treated with vehicle, MD001 (10 μM), or WY14643 (WY) (10 μM) for 24 h and the fatty acid oxidation rate was analysed as described in the Methods section. […]
# Total RNA was isolated using an RNeasy kit (Qiagen, Germantown, MD, USA) according to the manufacturer’s instructions. Complementary DNA (cDNA) was synthesised by reverse transcription using 0.5 μg of total RNA, and quantitative RT-PCR was performed using Power SYBR Green PCR Master Mix (ABI Thermo Fisher Scientific, Foster City, CA, USA) on a StepOne 48-well real-time PCR system (ABI/Thermo Fisher Scientific). […]
smiles,measurement,setting,value
Cc1c(O)cc(O)c2c(-c3ccccc3)c(C(=O)/C=C/c3ccccc3)c(=O)oc12 [MD001],"KD (M), second row of Supplementary Table S3 (PPARβ/δ)",PPARβ/δ,N.B
same,Kd,PPARγ,140 ± 30 nM
same,glucose consumption,[1],significantly increased glucose consumption in a dose-dependent manner
same,expression levels of ACOX and CPT,[2]; 10 μM,significantly increased
same,expression of glucose transporter GLUT4,"[2]; 10, 50 μM",significantly increased
